Experimental data as given in US11053204B2, “Pyrimidinyloxy benzene derivatives as herbicides” (FMC Corporation, priority 2015, dated 2021).

How the values were obtained:
Type in all cases: in vivo
[1] = test system: barnyardgrass (Echinochloa crus-galli); assay: Test B flooded paddy test, plant response rating; conditions: 250 g ai/ha; Flood; scale of 0 to 100 where 0 is no effect and 100 is complete control; 13 to 15 days
Procedure, shortened: (§1)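 Ratings were visual and made relative to untreated controls after 13 to 15 greenhouse days.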

[2] = test system: ducksalad (Heteranthera limosa); assay: Test B flooded paddy test, plant response rating; conditions: 250 g ai/ha; Flood; scale of 0 to 100 where 0 is no effect and 100 is complete control; 13 to 15 days
Procedure, shortened: as §1

[3] = test system: sedge, umbrella (small-flower umbrella sedge, Cyperus difformis); assay: Test B flooded paddy test, plant response rating; conditions: 250 g ai/ha; Flood; scale of 0 to 100 where 0 is no effect and 100 is complete control; 13 to 15 days
Procedure, shortened: as §1

rice (Oryza sativa) = assay: Test B flooded paddy test, plant response rating; conditions: 250 g ai/ha; Flood; scale of 0 to 100 where 0 is no effect and 100 is complete control; 13 to 15 days
Procedure, shortened: as §1

kochia (Kochia scoparia) [4] = assay: Test A preemergence, visual injury rating
Procedure, shortened: (§2)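 Pre- and postemergence greenhouse screen. Soil: loam + sand. Spray carrier: solvent mixture, non-phytotoxic, with surfactant. Post timing at 1–2 leaves, height 2–10 cm. Readout: visual injury on a 0–100 scale roughly 10 days after application, untreated plants as reference.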

[5] = test system: pigweed (Amaranthus retroflexus); assay: Test A preemergence, visual injury rating
Procedure, shortened: as §2

[6] = test system: barnyardgrass (Echinochloa crus-galli); assay: Test A preemergence, visual injury rating
Procedure, shortened: as §2

[7] = test system: giant foxtail (Setaria faberii); assay: Test A preemergence, visual injury rating
Procedure, shortened: as §2

[8] = test system: ragweed (common ragweed, Ambrosia elatior); assay: Test A preemergence, visual injury rating
Procedure, shortened: as §2

[9] = test system: Italian ryegrass (Lolium multiflorum); assay: Test A preemergence, visual injury rating
Procedure, shortened: as §2

corn (Zea mays) = assay: Test A postemergence, visual injury rating
Procedure, shortened: as §2

kochia (Kochia scoparia) [10] = assay: Test A postemergence, visual injury rating
Procedure, shortened: as §2

[11] = test system: galium (catchweed bedstraw, Galium aparine); assay: Test A postemergence, visual injury rating
Procedure, shortened: as §2

[12] = test system: wheat (Triticum aestivum); assay: Test A postemergence, visual injury rating
Procedure, shortened: as §2

[13] = test system: pigweed (Amaranthus retroflexus); assay: Test A postemergence, visual injury rating
Procedure, shortened: as §2

[14] = test system: barnyardgrass (Echinochloa crus-galli); assay: Test A postemergence, visual injury rating
Procedure, shortened: as §2

[15] = test system: giant foxtail (Setaria faberii); assay: Test A postemergence, visual injury rating
Procedure, shortened: as §2

[16] = test system: blackgrass (Alopecurus myosuroides); assay: Test A postemergence, visual injury rating
Procedure, shortened: as §2

[17] = test system: ragweed (common ragweed, Ambrosia elatior); assay: Test A postemergence, visual injury rating
Procedure, shortened: as §2

[18] = test system: Italian ryegrass (Lolium multiflorum); assay: Test A postemergence, visual injury rating
Procedure, shortened: as §2

[19] = 31 g ai/ha, 0 to 100 scale, 0 no effect, 100 complete control
[20] = 125 g ai/ha, 0 to 100 scale (0 no effect, 100 complete control)
[21] = 31 g ai/ha, 0 to 100 scale (0 no effect, 100 complete control)
[22] = 125 g ai/ha, 0 to 100 scale, 0 is no effect, 100 is complete control, approximately 10 days
[23] = 31 g ai/ha, 0 to 100 scale, 0 is no effect, 100 is complete control, approximately 10 days

## CCCCCC(C#N)c1ccccc1Oc1ncc(Cl)cn1 (stereo not drawn) [Compound 141, 2-[(5-chloro-2-pyrmidinyl)oxy]-α-pentylbenzeneacetonitrile]
[1]
  Plant response rating, Barnyardgrass: 20
[2]
  Plant response rating, Ducksalad: 70
[3]
  Plant response rating, Sedge, Umbrella: 50
Rice (Oryza sativa)
  Plant response rating, Rice: 10
Kochia (Kochia scoparia) [4]; [19]
  Plant response rating, Kochia: 10
Kochia (Kochia scoparia) [4]; [20]
  Plant response rating, Kochia: 20
[5]; [19]
  Plant response rating, Pigweed: 0
[5]; [20]
  Plant response rating, Pigweed: 90
[6]; [19]
  Plant response rating, Barnyardgrass: 0
[6]; [20]
  Plant response rating, Barnyardgrass: 60
[7]; [19]
  Plant response rating, Foxtail, Giant: 10
[7]; [20]
  Plant response rating, Foxtail, Giant: 100
[8]; [19]
  Plant response rating, Ragweed: 0
[8]; [20]
  Plant response rating, Ragweed: 30
[9]; [19]
  Plant response rating, Ryegrass, Italian: 0
[9]; [20]
  Plant response rating, Ryegrass, Italian: 10
Corn (Zea mays); [21]
  Corn plant response rating: 10
Corn (Zea mays); [22]
  Corn plant response rating: 20
Kochia (Kochia scoparia) [10]; [21]
  Kochia plant response rating: 50
Kochia (Kochia scoparia) [10]; [22]
  Kochia plant response rating: 60
[11]; [21]
  Galium plant response rating: 40
[11]; [22]
  Galium plant response rating: 60
[12]; [21]
  Wheat plant response rating: 0
[12]; [22]
  Wheat plant response rating: 0
[13]; [21]
  Pigweed plant response rating: 40
[13]; [22]
  Pigweed plant response rating: 70
[14]; [23]
  Barnyardgrass plant response rating: 10
[14]; [22]
  Barnyardgrass plant response rating: 20
[15]; [21]
  Foxtail, Giant plant response rating: 20
[15]; [22]
  Foxtail, Giant plant response rating: 40
[16]; [21]
  Blackgrass plant response rating: 0
[16]; [22]
  Blackgrass plant response rating: 10
[17]; [21]
  Ragweed plant response rating: 0
[17]; [22]
  Ragweed plant response rating: 20
[18]; [21]
  Ryegrass, Italian plant response rating: 0
[18]; [22]
  Ryegrass, Italian plant response rating: 10

## N#Cc1cccc(Oc2ncc(Cl)cn2)c1C(=O)CCC(F)(F)F [Compound 142]
[1]
  Plant response rating, Barnyardgrass: 0
[2]
  Plant response rating, Ducksalad: 0
[3]
  Plant response rating, Sedge, Umbrella: 0
Rice (Oryza sativa)
  Plant response rating, Rice: 0
Kochia (Kochia scoparia) [4]; [19]
  Plant response rating, Kochia: 0
Kochia (Kochia scoparia) [4]; [20]
  Plant response rating, Kochia: 0
[5]; [19]
  Plant response rating, Pigweed: 0
[5]; [20]
  Plant response rating, Pigweed: 0
[6]; [19]
  Plant response rating, Barnyardgrass: 0
[6]; [20]
  Plant response rating, Barnyardgrass: 0
[7]; [19]
  Plant response rating, Foxtail, Giant: 0
[7]; [20]
  Plant response rating, Foxtail, Giant: 0
[8]; [19]
  Plant response rating, Ragweed: 0
[8]; [20]
  Plant response rating, Ragweed: 0
[9]; [19]
  Plant response rating, Ryegrass, Italian: 0
[9]; [20]
  Plant response rating, Ryegrass, Italian: 0
Corn (Zea mays); [21]
  Corn plant response rating: 0
Corn (Zea mays); [22]
  Corn plant response rating: 10
Kochia (Kochia scoparia) [10]; [21]
  Kochia plant response rating: 0
Kochia (Kochia scoparia) [10]; [22]
  Kochia plant response rating: 10
[11]; [21]
  Galium plant response rating: 0
[11]; [22]
  Galium plant response rating: 20
[12]; [21]
  Wheat plant response rating: 0
[12]; [22]
  Wheat plant response rating: 0
[13]; [21]
  Pigweed plant response rating: 0
[13]; [22]
  Pigweed plant response rating: 20
[14]; [23]
  Barnyardgrass plant response rating: 0
[14]; [22]
  Barnyardgrass plant response rating: 0
[15]; [21]
  Foxtail, Giant plant response rating: 0
[15]; [22]
  Foxtail, Giant plant response rating: 0
[16]; [21]
  Blackgrass plant response rating: 0
[16]; [22]
  Blackgrass plant response rating: 0
[17]; [21]
  Ragweed plant response rating: 0
[17]; [22]
  Ragweed plant response rating: 20
[18]; [21]
  Ryegrass, Italian plant response rating: 0
[18]; [22]
  Ryegrass, Italian plant response rating: 0

## N#CC(CCCCC(F)(F)F)c1ccccc1Oc1ncc(Cl)cn1 (stereo not drawn) [Compound 145]
[1]
  Plant response rating, Barnyardgrass: 50
[2]
  Plant response rating, Ducksalad: 100
[3]
  Plant response rating, Sedge, Umbrella: 100
Rice (Oryza sativa)
  Plant response rating, Rice: 30
Kochia (Kochia scoparia) [4]; [19]
  Plant response rating, Kochia: 0
Kochia (Kochia scoparia) [4]; [20]
  Plant response rating, Kochia: 40
[5]; [19]
  Plant response rating, Pigweed: 100
[5]; [20]
  Plant response rating, Pigweed: 100
[6]; [19]
  Plant response rating, Barnyardgrass: 40
[6]; [20]
  Plant response rating, Barnyardgrass: 80
[7]; [19]
  Plant response rating, Foxtail, Giant: 90
[7]; [20]
  Plant response rating, Foxtail, Giant: 100
[8]; [19]
  Plant response rating, Ragweed: 0
[8]; [20]
  Plant response rating, Ragweed: 30
[9]; [19]
  Plant response rating, Ryegrass, Italian: 10
[9]; [20]
  Plant response rating, Ryegrass, Italian: 50
Corn (Zea mays); [21]
  Corn plant response rating: 30
Corn (Zea mays); [22]
  Corn plant response rating: 50
Kochia (Kochia scoparia) [10]; [21]
  Kochia plant response rating: 70
Kochia (Kochia scoparia) [10]; [22]
  Kochia plant response rating: 90
[11]; [21]
  Galium plant response rating: 40
[11]; [22]
  Galium plant response rating: 80
[12]; [21]
  Wheat plant response rating: 10
[12]; [22]
  Wheat plant response rating: 30
[13]; [21]
  Pigweed plant response rating: 90
[13]; [22]
  Pigweed plant response rating: 100
[14]; [21]
  Barnyardgrass plant response rating: 30
[14]; [22]
  Barnyardgrass plant response rating: 80
[15]; [21]
  Foxtail, Giant plant response rating: 50
[15]; [22]
  Foxtail, Giant plant response rating: 70
[16]; [21]
  Blackgrass plant response rating: 40
[16]; [22]
  Blackgrass plant response rating: 60
[17]; [21]
  Ragweed plant response rating: 10
[17]; [22]
  Ragweed plant response rating: 20
[18]; [21]
  Ryegrass, Italian plant response rating: 10
[18]; [22]
  Ryegrass, Italian plant response rating: 40

## N#Cc1cccc(Oc2ncc(Cl)cn2)c1NCCCC(F)(F)F [Compound 146]
[1]
  Plant response rating, Barnyardgrass: 40
[2]
  Plant response rating, Ducksalad: 100
[3]
  Plant response rating, Sedge, Umbrella: 85
Rice (Oryza sativa)
  Plant response rating, Rice: 35
Kochia (Kochia scoparia) [4]; [19]
  Plant response rating, Kochia: 60
Kochia (Kochia scoparia) [4]; [20]
  Plant response rating, Kochia: 80
[5]; [19]
  Plant response rating, Pigweed: 60
[5]; [20]
  Plant response rating, Pigweed: 100
[6]; [19]
  Plant response rating, Barnyardgrass: 20
[6]; [20]
  Plant response rating, Barnyardgrass: 100
[7]; [19]
  Plant response rating, Foxtail, Giant: 80
[7]; [20]
  Plant response rating, Foxtail, Giant: 100
[8]; [19]
  Plant response rating, Ragweed: 0
[8]; [20]
  Plant response rating, Ragweed: 0
[9]; [19]
  Plant response rating, Ryegrass, Italian: 0
[9]; [20]
  Plant response rating, Ryegrass, Italian: 50
Corn (Zea mays); [21]
  Corn plant response rating: 20
Corn (Zea mays); [22]
  Corn plant response rating: 80
Kochia (Kochia scoparia) [10]; [21]
  Kochia plant response rating: 70
Kochia (Kochia scoparia) [10]; [22]
  Kochia plant response rating: 100
[11]; [21]
  Galium plant response rating: 70
[11]; [22]
  Galium plant response rating: 100
[12]; [21]
  Wheat plant response rating: 20
[12]; [22]
  Wheat plant response rating: 20
[13]; [21]
  Pigweed plant response rating: 60
[13]; [22]
  Pigweed plant response rating: 70
[14]; [21]
  Barnyardgrass plant response rating: 30
[14]; [22]
  Barnyardgrass plant response rating: 90
[15]; [21]
  Foxtail, Giant plant response rating: 30
[15]; [22]
  Foxtail, Giant plant response rating: 90
[16]; [21]
  Blackgrass plant response rating: 30
[16]; [22]
  Blackgrass plant response rating: 90
[17]; [21]
  Ragweed plant response rating: 0
[17]; [22]
  Ragweed plant response rating: 30
[18]; [21]
  Ryegrass, Italian plant response rating: 0
[18]; [22]
  Ryegrass, Italian plant response rating: 70
